This note sets out measurements from article PMC6792352, “Limited Chemical Structural Diversity Found to Modulate Thyroid Hormone Receptor in the Tox21 Chemical Library” (Environmental Health Perspectives, 2019).

The structures appear in SMILES notation. Counter-ions that a name gives are not always drawn.

A word on the CC50: it is the concentration that lowers cell viability or growth by half. Read a low CC50 as harm at low concentration.

The first series in a line: in vitro. The conditions noted are these: rat, gh3-tre-luc cells, AC50 (uM) modified / 1000.
In the case of `NC(=O)CC[C@H](Nc1ccc([N+](=O)[O-])cc1)C(=O)O` [N2-(4-Nitrophenyl)-L-glutamine hydrochloride], the CC50 at 24 h was above 90 µM. In turn, `CNC(=O)N(c1ccccc1)c1ccccc1` [N'-Methyl-N,N-diphenylurea] yielded a CC50 at 24 h above 90 µM. As for `CN(C)CCCNCCCN(C)C` [N'-[3-(Dimethylamino)propyl]-N,N-dimethylpropane-1,3-diamine], the CC50 at 24 h was above 90 µM.

As to `C[Si](NC1CCCCC1)(NC1CCCCC1)NC1CCCCC1` [N,N',N''-Tricyclohexyl-1-methylsilanetriamine], the CC50 at 24 h is above 90 µM.

With `CCC(C)Nc1ccc(NC(C)CC)cc1` (stereo not shown) [N,N'-Bis(1-methylpropyl)-1,4-benzenediamine], the CC50 at 24 h was determined as 14 µM. In the case of `c1ccc2cc(Nc3ccc(Nc4ccc5ccccc5c4)cc3)ccc2c1` [N,N'-Di-2-naphthyl-p-phenylenediamine], the CC50 at 24 h was above 90 µM. Molecule `CC(C)(C)NCCNC(C)(C)C` [N,N'-Di-tert-butylethane-1,2-diamine] returned a CC50 at 24 h above 90 µM. In turn, `c1ccc(CNCCNCc2ccccc2)cc1` [N,N'-Dibenzylethane-1,2-diamine dihydrochloride] displayed a CC50 at 24 h above 50 µM. In turn, `CCCCNC(=S)NCCCC` [N,N'-Dibutylthiourea] gave a half-maximal cytotoxic concentration (CC50) at 24 h above 90 µM. Molecule `CCCCNC(=O)NCCCC` [N,N'-Dibutylurea] showed a CC50 at 24 h above 90 µM.

`S=C(NC1CCCCC1)NC1CCCCC1` [N,N'-Dicyclohexylthiourea] yielded a 50% cytotoxic concentration (CC50) at 24 h above 90 µM. `CCN(C(=O)N(CC)c1ccccc1)c1ccccc1` [N,N'-Diethylcarbanilide]: the CC50 at 24 h was above 90 µM. `CCNC(=S)NCC` [N,N'-Diethylthiourea] showed a CC50 at 24 h above 90 µM. In turn, `CNC(=S)NC` [N,N'-Dimethylthiourea] gave a CC50 at 24 h above 90 µM. `CNC(=O)NC` [N,N'-Dimethylurea] displayed a 50% cytotoxic concentration (CC50) at 24 h above 90 µM. Regarding `c1ccc(Nc2ccc(Nc3ccccc3)cc2)cc1` [N,N'-Diphenyl-p-phenylenediamine], the CC50 at 24 h worked out at 33.3 µM.

Consider `CC(CN=Cc1ccccc1O)N=Cc1ccccc1O` (stereo not shown) [N,N'-Disalicylidene-1,2-diaminopropane], for which the CC50 at 24 h was above 90 µM. As for `C=CC(=O)NCNC(=O)C=C` [N,N'-Methylenebisacrylamide], the 50% cytotoxic concentration (CC50) at 24 h was above 90 µM. Same read-out and setting: for `C(/C=C/C=C/Nc1ccccc1)=Nc1ccccc1` [N,N'-Penta-1,3-dien-1-yl-5-ylidenedianiline hydrochloride] the value was above 90 µM. Consider `Cc1ccc(N(C)C)cc1` [N,N,4-Trimethylaniline], for which the CC50 at 24 h is above 90 µM. Consider `CCCCN(CCCC)CCCCCCN(CCCC)CCCC` [N,N,N',N'-Tetrabutyl-1,6-hexanediamine], for which the 50% cytotoxic concentration (CC50) at 24 h is above 90 µM. Regarding `CC(O)CN(CCN(CC(C)O)CC(C)O)CC(C)O` (stereo not shown) [N,N,N',N'-Tetrakis(2-Hydroxypropyl)ethylenediamine], the CC50 at 24 h was above 90 µM.

Take `CN(C)CCCN(C)C` [N,N,N',N'-Tetramethyl-1,3-propanediamine]: the CC50 at 24 h was above 5 µM. `CN(C)c1ccc(N(C)C)cc1` [N,N,N',N'-Tetramethyl-p-phenylenediamine] displayed a CC50 at 24 h of 58.6 µM. Consider `C[N+](C)(C)CCCCCC[N+](C)(C)C` [N,N,N,N',N',N'-Hexamethylhexane-1,6-diaminium], for which the CC50 at 24 h was above 50 µM. The molecule `C=C(C)C(=O)NCCC[N+](C)(C)C` [N,N,N-Trimethyl-3-[(2-methylacryloyl)amino]propan-1-aminium chloride] returned a CC50 at 24 h above 90 µM. The molecule `CCCCCCCCCCCCCCCCCC[N+](C)(C)C` [N,N,N-Trimethyloctadecan-1-aminium chloride] displayed a CC50 at 24 h of 13.4 µM.

For `CCCCCCCCCCCC(=O)N(CCO)CCO` [N,N-Bis(2-hydroxyethyl)dodecanamide], it took 42.5 µM to reach half-maximal cytotoxicity (CC50 at 24 h).

`O=CN(CCO)CCO` [N,N-Bis(2-hydroxyethyl)formamide] yielded a CC50 at 24 h above 90 µM. On the same count and under the same terms, for `CCCC[N+](C)(CCCC)CCCC` [N,N-Dibutyl-N-methylbutan-1-aminium chloride] the value was above 90 µM; for `c1ccc2sc(SN(C3CCCCC3)C3CCCCC3)nc2c1` [N,N-Dicyclohexyl-2-benzothiazolesulfenamide], above 100 µM; for `CC[N+](C)(CC)CC` [N,N-Diethyl-N-methylethanaminium chloride], above 90 µM. On the same count and under the same terms, for `CCN(CC)c1ccccc1` [N,N-Diethylaniline] the value was above 90 µM. For `CCN(CC)c1ccc(N)cc1` [N,N-Diethylbenzene-1,4-diamine], the CC50 at 24 h stood at 64.7 µM. Same read-out and setting: for `CCN(CC)C1CCCCC1` [N,N-Diethylcyclohexylamine] the value was above 90 µM; for `CCCCCCCCCCCC(=O)N(CC)CC` [N,N-Diethyldodecanamide], above 90 µM. Molecule `CCN(CC)CCO` [N,N-Diethylethanolamine] had a half-maximal cytotoxic concentration (CC50) at 24 h above 100 µM. Still for that read-out and setting: the same measure for `CCN(O)CC` [N,N-Diethylhydroxylamine]: above 90 µM; for `CCN(CC)C(=O)c1cccnc1` [N,N-Diethylnicotinamide]: above 50 µM; for `CC(C)N(c1ccccc1)C(C)C` [N,N-Diisopropylaniline]: above 90 µM.

`CN(C)C(=O)CNC(=O)Cc1ccccc1` [N,N-Dimethyl-2-(2-phenylacetamido)acetamide] had a CC50 at 24 h above 50 µM.

In the case of `CCCCCCCCCCCCCCCCCC[N+](C)(C)CCC[Si](OC)(OC)OC` [N,N-Dimethyl-N-(3-(trimethoxysilyl)propyl) octadecan-1-aminium chloride], the CC50 at 24 h is above 50 µM. The molecule `CCCCCCCCCCCCCCCCCC[N+](C)(C)Cc1ccccc1` [N,N-Dimethyl-N-benzyl-N-octadecylammonium chloride] returned a CC50 at 24 h of 11.4 µM. In other words, the double-digit micromolar range. The molecule `CC(=O)CC(=O)N(C)C` [N,N-Dimethylacetoacetamide] registered a CC50 at 24 h above 90 µM. In turn, `CN(C)Cc1ccccc1` [N,N-Dimethylbenzylamine] returned a CC50 at 24 h above 50 µM.

`CN(C)C1CCCCC1` [N,N-Dimethylcyclohexylamine] showed a CC50 at 24 h above 90 µM.

Turning to `CCCCCCCCCC(=O)N(C)C` [N,N-Dimethyldecanamide], the CC50 at 24 h was above 90 µM. The same measure, in the same setting: for `CCCCCCCCCC[N+](C)(C)[O-]` [N,N-Dimethyldecylamine oxide] the value was above 90 µM.

Turning to `CCCCCCCCCCCCN(C)C` [N,N-Dimethyldodecan-1-amine], the CC50 at 24 h is above 90 µM. Still for that read-out and setting: for `CN(C)C=O` [N,N-Dimethylformamide] the value was above 90 µM. For the molecule `CCCCCCCC(=O)N(C)C` [N,N-Dimethyloctanamide], the CC50 at 24 h was above 90 µM.

`CCCCCCCCN(C)C` [N,N-Dimethyloctylamine] yielded a CC50 at 24 h above 90 µM. The same measure, in the same setting: the same measure for `CCCCC(=O)N(C)C` [N,N-Dimethylpentanamide]: above 90 µM.

In turn, `CCCCCCCCCCCCCCN(C)C` [N,N-Dimethyltetradecylamine] displayed a CC50 at 24 h above 20 µM. Regarding `CN(C)CCc1c[nH]c2ccccc12` [N,N-Dimethyltryptamine fumarate], the CC50 at 24 h is above 100 µM. `CN(C)c1ccncc1` [N,N-dimethylpyridin-4-amine] registered a CC50 at 24 h above 90 µM. Take `CC(C)CC(C)Nc1ccc(Nc2ccccc2)cc1` (stereo not shown) [N-(1,3-Dimethylbutyl)-N'-phenyl-p-phenylenediamine]: the CC50 at 24 h turned out to be 39 µM. Molecule `CCC(CC)Nc1ccc(C)c(C)c1` [N-(1-Ethylpropyl)-3,4-xylidine] showed a CC50 at 24 h above 90 µM. As to `CCCCCCC(C)Nc1ccc(Nc2ccccc2)cc1` (stereo not shown) [N-(1-Methylheptyl)-N'-phenyl-1,4-benzenediamine], half-maximal cytotoxicity (CC50 at 24 h) was put at 35.9 µM.

As for `CC(=O)CC(=O)Nc1ccc(C)cc1C` [N-(2,4-Dimethylphenyl)-3-oxobutanamide], the CC50 at 24 h is above 90 µM.

Regarding `CC(=O)Nc1ccc(C)cc1C` [N-(2,4-Dimethylphenyl)acetamide], the CC50 at 24 h was above 90 µM. In the case of `Cc1ccc(NC=O)c(C)c1` [N-(2,4-Dimethylphenyl)formamide], the CC50 at 24 h was above 90 µM. Molecule `COc1ccc(OC)c(NC(=O)CC(C)=O)c1` [N-(2,5-Dimethoxyphenyl)-3-oxobutanamide] gave a CC50 at 24 h above 90 µM. As for `O=C(Nc1ccc2c(c1)Cc1ccccc1-2)C(F)(F)F` [N-(2-Fluorenyl)-2,2,2-trifluoroacetamide], the CC50 at 24 h is above 90 µM. As to `CC(=O)NCCO` [N-(2-Hydroxyethyl)acetamide], the half-maximal cytotoxic concentration (CC50) at 24 h was above 90 µM.

The same series, now with this note: rat, gh3-tre-luc cells, AC50 (uM) modified / 1000, Tox21_110001=Tox21_112703; viability, 1 nM T3 present, 24 h.
For the molecule `CN(C)C(Cc1ccccc1)c1ccccc1` (stereo not shown) [N,N-Dimethyl-1,2-diphenylethanamine], the CC50 at 24 h is above 50 µM.

The same series, now with this note: rat, gh3-tre-luc cells, AC50 (uM) modified / 1000, Tox21_110001=Tox21_112891; viability, 1 nM T3 present, 24 h.
For `CCN(CC)CCc1c[nH]c2ccccc12` [N,N-Diethyltryptamine fumarate], the CC50 at 24 h is above 100 µM.

The series is the same for the next values; noted with them: rat, gh3-tre-luc cells, AC50 (uM) modified / 1000, Tox21_110001=Tox21_112893; viability, 1 nM T3 present, 24 h.
In turn, `CCCN(CCC)CCc1c[nH]c2ccccc12` [N,N-Dipropyltryptamine hydrochloride] gave a CC50 at 24 h of 39.8 µM.

Staying with this series, now noted: rat, gh3-tre-luc cells, AC50 (uM) modified / 1000, Tox21_110001=Tox21_200191; viability, 1 nM T3 present, 24 h.
For `CN(C)c1ccc(N)cc1` [N,N-Dimethyl-p-phenylenediamine], the CC50 at 24 h was 59.3 µM. This lies in the double-digit micromolar range.

The same series, now with this note: rat, gh3-tre-luc cells, AC50 (uM) modified / 1000, Tox21_110001=Tox21_200241; viability, 1 nM T3 present, 24 h.
Molecule `CN(C)CCN(C)C` [N,N,N',N'-Tetramethylethylenediamine] displayed a CC50 at 24 h above 90 µM.

Staying with this series, now noted: rat, gh3-tre-luc cells, AC50 (uM) modified / 1000, Tox21_110001=Tox21_201813; viability, 1 nM T3 present, 24 h.
`CN(C)c1ccccc1` [N,N-Dimethylaniline]: the CC50 at 24 h is above 90 µM.

Still in this series, the particulars now being: rat, gh3-tre-luc cells, AC50 (uM) modified / 1000, Tox21_110001=Tox21_300036; viability, 1 nM T3 present, 24 h.
As to `CN(C)c1ccccc1` [N,N-Dimethylaniline], the cytotoxic concentration (CC50) at 24 h is above 100 µM.

The same series, now with this note: rat, gh3-tre-luc cells, AC50 (uM) modified / 1000, Tox21_110001=Tox21_301746; viability, 1 nM T3 present, 24 h.
On to `CNC=Nc1ccc(C)cc1C` [N'-(2,4-Dimethylphenyl)-N-methylformamidine], for which the CC50 at 24 h was above 90 µM.
